For the assay, the target named is T1, CATH-2 (chicken cathelicidin-2) (Gallus gallus, UniProt Q2IAL7).
T1 construct: gene CATHL2; Fmoc synthesis, unlabelled; cut from the cathelicidin-2 precursor
T1 sequence (Q2IAL7 128-153): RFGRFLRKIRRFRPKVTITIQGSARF
As to the kind of experiment: isothermal titration calorimetry. To be noted: PBS, 1.5% ethanol, 20 °C; 400 µM CATH-2 titrated into 200 µM cardiolipin (Sigma-Aldrich, source and acyl chains not told); n = 2, SEM; lipid suspension. It counts as binding. An excerpt:
isothermal titration calorimetry on CATH-2 (chicken cathelicidin-2)

The Kd is the constant that tells how readily two partners part at equilibrium. As to cardiolipin, binding was characterised by a dissociation constant (Kd) of 0.0721 ± 0.0571 µM.

The record behind these values is paper PMC5663982, “Imaging the Antistaphylococcal Activity of CATH-2: Mechanism of Attack and Regulation of Inflammatory Response” (mSphere, 2017).
